target: human TYK2 (JH2domain-pseudokinase) (Homo sapiens (Human), UniProt P29597); assay: TYK2 JH2 Domain Binding Assay (KINOMEscan, DiscoveRx); conditions: 11-point dilution, duplicate
Procedure, shortened: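 Kd from duplicate 11-point 3-fold dilutions starting at 30,000 nM, fitted by Hill equation with slope fixed at −1. Compounds (final 0.9% DMSO) displace DNA-tagged HEK293-expressed TYK2 JH2 fusion (<0.1 nM) from ligand-coated beads over 1 h at room temperature; eluted kinase read by qPCR.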

human TYK2 (JH2domain-pseudokinase), sequence (P29597 556-888): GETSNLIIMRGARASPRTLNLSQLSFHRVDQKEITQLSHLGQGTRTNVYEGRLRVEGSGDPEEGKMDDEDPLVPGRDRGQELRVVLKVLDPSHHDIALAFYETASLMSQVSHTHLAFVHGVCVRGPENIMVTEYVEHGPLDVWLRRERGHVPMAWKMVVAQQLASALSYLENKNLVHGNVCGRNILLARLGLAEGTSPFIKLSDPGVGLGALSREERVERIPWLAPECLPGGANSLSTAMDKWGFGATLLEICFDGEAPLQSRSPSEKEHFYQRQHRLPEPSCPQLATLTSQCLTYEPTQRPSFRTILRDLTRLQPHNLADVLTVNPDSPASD

Compound | Kd [pM]
CS(=O)(=O)c1cc(C2CCOCC2)ccc1Nc1cc(NC(=O)[C@H]2CC2(F)F)nc2[nH]c(C(F)F)nc12 [I-294, (R)—N-(2-(difluoromethyl)-7-((2-(methylsulfonyl)-4-(tetrahydro-2H-pyran-4-yl)phenyl)amino)-3H-imidazo[4,5-b]pyridin-5-yl)-2,2-difluorocyclopropane-1-carboxamide] | 1000 to 10000
COCCNc1ccc(Nc2cc(Nc3ccccc3N(C)S(C)(=O)=O)c3nc(C(F)F)[nH]c3n2)nc1C#N [I-295, N-(2-((5-((6-cyano-5-((2-methoxyethyl)amino)pyridin-2-yl)amino)-2-(difluoromethyl)-3H-imidazo[4,5-b]pyridin-7-yl)amino)phenyl)-N-methylmethane sulfonamide] | 100 to 500
C[S@+]([O-])c1ccccc1Nc1cc(NC(=O)C2CC2)nc2[nH]c(C(F)F)nc12 [I-297, (S)—N-(2-(difluoromethyl)-7-((2-(methylsulfinyl)phenyl)amino)-3H-imidazo[4,5-b]pyridin-5-yl)cyclopropanecarboxamide] | 500 to 1000
C[S@@+]([O-])c1ccccc1Nc1cc(NC(=O)C2CC2)nc2[nH]c(C(F)F)nc12 [I-298, (R)—N-(2-(difluoromethyl)-7-((2-(methylsulfinyl)phenyl)amino)-3H-imidazo[4,5-b]pyridin-5-yl)cyclopropanecarboxamide] | > 10000
Cc1cnc(-c2ccc(Nc3cc(NC(=O)C4CC4)nc4[nH]c(C(F)F)nc34)c(S(C)(=O)=O)c2)s1 [I-304, N-(2-(difluoromethyl)-7-((2-(methylsulfonyl)-4-(5-methylthiazol-2-yl)phenyl)amino)-3H-imidazo[4,5-b]pyridin-5-yl)cyclopropanecarboxamide] | 500 to 1000
CS(=O)(=O)c1cc([C@H]2CCCO2)ccc1Nc1cc(NC(=O)[C@@H]2CC2(F)F)nc2[nH]c(C(F)F)nc12 [I-306, (S)—N-(2-(difluoromethyl)-7-((2-(methylsulfonyl)-4-((R)-tetrahydrofuran-2-yl)phenyl)amino)-3H-imidazo[4,5-b]pyridin-5-yl)-2,2-difluorocyclopropane-1-carboxamide] | 500 to 1000
CS(=O)(=O)c1cc([C@H]2CCCO2)ccc1Nc1cc(NC(=O)[C@H]2CC2(F)F)nc2[nH]c(C(F)F)nc12 [I-307, (R)—N-(2-(difluoromethyl)-7-((2-(methylsulfonyl)-4-((R)-tetrahydrofuran-2-yl)phenyl)amino)-3H-imidazo[4,5-b]pyridin-5-yl)-2,2-difluorocyclopropane-1-carboxamide] | 1000 to 10000
Cc1nc2c(Nc3ccc(-c4nc(C)c(C)s4)cc3S(C)(=O)=O)cc(NC(=O)C3CC3)nc2[nH]1 [I-312, N-(7-((4-(4,5-dimethylthiazol-2-yl)-2-(methylsulfonyl)phenyl)amino)-2-methyl-3H-imidazo[4,5-b]pyridin-5-yl)cyclopropanecarboxamide] | 100 to 500

Next, values leading:

Kd [pM] | Compound
500 to 1000 | COc1c(Nc2cc(NC(=O)[C@@H]3C[C@@H]3F)nc3[nH]c(C(F)F)nc23)cccc1-c1ncn(C)n1 [I-296, (1S,2S)—N-(2-(difluoromethyl)-7-((2-methoxy-3-(1-methyl-1H-1,2,4-triazol-3-yl)phenyl)amino)-3H-imidazo[4,5-b]pyridin-5-yl)-2-fluorocyclopropane-1-carboxamide]
500 to 1000 | Cc1nc2c(Nc3ccc(-c4cc(C)n(C)n4)cc3S(C)(=O)=O)cc(Nc3cccc(C(F)(F)F)n3)nc2[nH]1 [I-299, N7-(4-(1,5-dimethyl-1H-pyrazol-3-yl)-2-(methylsulfonyl)phenyl)-2-methyl-N5-(6-(trifluoromethyl)pyridin-2-yl)-3H-imidazo[4,5-b]pyridine-5,7-diamine]
100 to 500 | Cc1ncc(Nc2cc(Nc3ccc(-c4cc(C)n(C)n4)cc3S(C)(=O)=O)c3nc(C(F)F)[nH]c3n2)nc1C [I-300, 2-(difluoromethyl)-N7-(4-(1,5-dimethyl-1H-pyrazol-3-yl)-2-(methylsulfonyl)phenyl)-N5-(5,6-dimethylpyrazin-2-yl)-3H-imidazo[4,5-b]pyridine-5,7-diamine]
100 to 500 | Cn1cnc(-c2ccc(Nc3cc(NC(=O)[C@H]4C[C@H]4F)nc4[nH]c(C(F)F)nc34)c(S(C)(=O)=O)c2)c1 [I-301, (1R,2R)—N-(2-(difluoromethyl)-7-((4-(1-methyl-1H-imidazol-4-yl)-2-(methylsulfonyl)phenyl)amino)-3H-imidazo[4,5-b]pyridin-5-yl)-2-fluorocyclopropane-1-carboxamide]
100 to 500 | Cc1c(-c2ccc(Nc3cc(Nc4cccc(C#N)n4)nc4[nH]c(C(F)F)nc34)c(S(C)(=O)=O)c2)cnn1C [I-302, 6-((2-(difluoromethyl)-7-((4-(1,5-dimethyl-1H-pyrazol-4-yl)-2-(methylsulfonyl)phenyl)amino)-3H-imidazo[4,5-b]pyridin-5-yl)amino)picolinonitrile]
500 to 1000 | Cc1ccc(Nc2cc(Nc3ccc(-c4cc(C)n(C)n4)cc3S(C)(=O)=O)c3nc(C(F)F)[nH]c3n2)nc1C#N [I-303, 6-((2-(difluoromethyl)-7-((4-(1,5-dimethyl-1H-pyrazol-3-yl)-2-(methylsulfonyl)phenyl)amino)-3H-imidazo[4,5-b]pyridin-5-yl)amino)-3-methylpicolinonitrile]
100 to 500 | Cc1nc2c(Nc3ccc(-c4ncc(C)s4)cc3S(C)(=O)=O)cc(NC(=O)C3CC3)nc2[nH]1 [I-305, N-(2-methyl-7-((2-(methylsulfonyl)-4-(5-methylthiazol-2-yl)phenyl)amino)-3H-imidazo[4,5-b]pyridin-5-yl)cyclopropanecarboxamide]
100 to 500 | Cc1c(-c2ccc(Nc3cc(NC(=O)[C@@H]4CC4(F)F)nc4[nH]c(C(F)F)nc34)c(S(C)(=O)=O)c2)cnn1C [I-308, (S)—N-(2-(difluoromethyl)-7-((4-(1,5-dimethyl-1H-pyrazol-4-yl)-2-(methylsulfonyl)phenyl)amino)-3H-imidazo[4,5-b]pyridin-5-yl)-2,2-difluorocyclopropane-1-carboxamide]
100 to 500 | Cc1c(-c2ccc(Nc3cc(NC(=O)[C@H]4CC4(F)F)nc4[nH]c(C(F)F)nc34)c(S(C)(=O)=O)c2)cnn1C [I-309, (R)—N-(2-(difluoromethyl)-7-((4-(1,5-dimethyl-1H-pyrazol-4-yl)-2-(methylsulfonyl)phenyl)amino)-3H-imidazo[4,5-b]pyridin-5-yl)-2,2-difluorocyclopropane-1-carboxamide]
500 to 1000 | CS(=O)(=O)c1cc([C@H]2CCCOC2)ccc1Nc1cc(NC(=O)[C@H]2CC2(F)F)nc2[nH]c(C(F)F)nc12 [I-310, (R)—N-(2-(difluoromethyl)-7-((2-(methylsulfonyl)-4-((R)-tetrahydro-2H-pyran-3-yl)phenyl)amino)-3H-imidazo[4,5-b]pyridin-5-yl)-2,2-difluorocyclopropane-1-carboxamide]
1000 to 10000 | CS(=O)(=O)c1cc([C@H]2CCCOC2)ccc1Nc1cc(NC(=O)[C@@H]2CC2(F)F)nc2[nH]c(C(F)F)nc12 [I-311, (S)—N-(2-(difluoromethyl)-7-((2-(methylsulfonyl)-4-((R)-tetrahydro-2H-pyran-3-yl)phenyl)amino)-3H-imidazo[4,5-b]pyridin-5-yl)-2,2-difluorocyclopropane-1-carboxamide]

From patent US10647713B2 (Nimbus Lakshmi, Inc., priority 2016, dated 2020)
